Results: patent US6673823B2, “Use of peroxisome proliferator activated receptor (PPAR)-γ ligands as a treatment for pituitary tumors and associated conditions, such as Cushing's syndrome” (Cedars-Sinai Medical Center, priority 2002, dated 2004)
Values belong to the compound of their own block, whether it stands above or below them.

Columns and labels:
[1] = tested on: human patients; conditions: cited from earlier work
[2] = tested on: mouse corticotroph tumor cells (AtT20); assay: Western blot analysis of TZD-treated corticotroph cells; type: cell-based; conditions: 10^−5 M, vs. vehicle
Protocol: Western Blot Analysis: AtT20 cells were seeded at about 1×10^6 per well and human pituitary cell cultures were seeded at about 0.5×10^6 per well in 6-well plates for 24 hours prior to treatment with TZD's. Cells were then washed with PBS, and protein samples prepared in RIPA buffer and resolved under reducing conditions on 12% SDS-polyacrylamide gels using standard methods (Elstner, E., et al., Ligands for peroxisome proliferator-activated receptor-γ and retinoic acid receptor inhibit growth and induce apoptosis of human breast cancer cells in vitro and in BNX mice. Proc. Natl. Acad. Sci. USA 95:8806-8811 [1998]). Resolved proteins were transferred to nitrocellulose membranes and probed with antibodies to Bc1-2 (1:500), Bax (1:1000), TRAIL (1:500), p53 (1:1000) (all from Santa-Cruz, Cailf.), p-Rb (Ser 795) (1:1000), cleaved and uncleaved caspase-3 (1:500) (Cell Signalling, Beverly, Mass.) overnight at 4° C. After washing, membranes were incubated with appropriate IgG- horseradish peroxidase conjugates, and immunoreactive protein bands were visualized with ECL (Amersham, Buckinghamshire, UK). Total protein was normalized by reprobing with anti-actin antibody (1:5000, Sigma, St. Louis, Mo.) or Ponceau S staining, and protein bands quantified by densitometry (Video Densitometer model 620, Bio-Rad).

[3] = tested on: rat GH3, murine αT3, and human pituitary tumor cells; assay: Annexin-FITC, FACS and TUNEL apoptosis analysis; type: cell-based; conditions: control 33±3, p<0.0002
Protocol: Apoptosis Assay: Annexin FITC by flow Cytometry. GH3, αT3 and human pituitary tumor cells were treated, washed in PBS, trypsinized, centrifuged, and washed prior to incubation with a FITC-labeled monoclonal Annexin antibody and PI for 30 min at room temperature according to manufacturer's instructions (Pharmingen, San Diego, Cailf.). About 1×10^6 cells were prepared and analyzed by flow cytometry, labeled nuclei (PI) were gated on light scatter to remove debris, and the percentage of Annexin-FITC positive cells determined. Annexin-FITC positive cells were also visualized with an Olympus BH2 immunofluorescent microscope.
(§1) Terminal Deoxynucleotidyltransferase-mediated dUTP Nick End Labeling (TUNEL). Apoptosis-induced nuclear DNA fragmentation was detected using the in situ cell death detection kit, TMR red (Roche Diagnostics, Indianapolis, Ind.) following the manufacturer's protocol. Briefly, 48 hours following TZD treatment, GH3, αT3 and human pituitary tumor cells were fixed in 4% weight per volume paraformaldehyde, permeabilized with 0.1% sodium citrate/ 0.6% Tween 20 (pH 7.4) for 2 min at 4° C. prior to incubation in Tunel reaction mix (TMR red/dNTP mix, TdT, and labeling buffer) for 60 min at 37° C. Slides were washed (3×5 min) in PBS/Triton/BSA (0.3%) and visualized on a an Olympus BH2 immunofluorescent microscope.

[4] = tested on: AtT20 mouse pituitary (ACTH-secreting) tumor cells; assay: Cell cycle distribution (FACS, propidium iodide); type: cell-based; conditions: 10^−6 to 10^−4 M, up to 48 h serum-free or up to 96 h serum-replete
Protocol: (§2) Cell Culture. […] Medium was replenished with ligands every 2 days, and cells maintained in serum-containing medium or in serum-free medium for up to 96 hours.
(§3) Cell Cycle Distribution. Following treatments, AtT20 cells were trypsinized, centrifuged (1500 rpm×2 min), washed with PBS, and treated with 20 µg/mL Rnase A (Calbiochem, La Jolla, Calif.). DNA was stained with 100 μg/mL propidium iodide (PI) for 30 min at 40° C. and protected from light, prior to analysis with a FACScan (Becton Dickinson, Franklin Lakes, N.J.). DNA histogram analysis was performed using the modFitLT software.
To determine the functional significance of pituitary corticotroph PPAR-γ expression, the effects of PPAR-γ ligands were tested on ACTH-secreting pituitary tumor cells in vitro. Troglitazone or rosiglitazone-treatment (10^−6 to 10^−4 M) for up to 48 hours, when cells were maintained in serum-free conditions, or up to 96 hours, when cells were maintained in serum-replete conditions, induced G0-G1 cell-cycle arrest (control, G1 75±4% vs. ros, G1 85±2%, p=0.009), and led to decreased S-phase cells (control, 18±0.05% vs. ros, 12±0.5%, p=0.001) (FIG. 3A).

[5] = tested on: Mouse corticotroph AtT20 pituitary tumor cells; assay: Prevention of subcutaneous corticotroph tumor development in athymic nude mice; type: in vivo; conditions: oral 150 mg/kg/day, 4 weeks
[6] = tested on: rat GH3 (PRL- and GH-secreting) cells; assay: Cell cycle distribution (FACS, propidium iodide); type: cell-based
Protocol: as §2
as §3, with “GH3, αT3, or human pituitary tumor” for “AtT20”, “Cailf.).” for “Calif.).”, “μg/ mL” for “μg/mL”, “4°” for “40°”
(§4) To determine the functional significance of pituitary tumor PPAR-γ expression, the effects of PPAR-γ ligands was tested on pituitary tumor cells in vitro. Troglitazone or rosiglitazone-treatment ([…]) of GH3 (PRL- and GH-secreting), and αT3 (gonadotroph-secreting) and human pituitary tumor cells for up to 48 hours, in serum-free conditions, or up to 96 hours, for cells maintained in serum-repleted conditions, induced G0-G1 cell-cycle arrest (GH3: control, G1 75±4% vs. ros, G1 85±2%, p=0.009; αT3: control, G1 67±0.5% vs. ros, G1 75±0.5%, p=0.01), and led to decreased number of cells in S-phase (GH3: control, 18±0.05% vs. ros, 12±0.5%, p=0.001; αT3: control, 31±0.5% vs. ros, 16±2.5%, p=0.03) (FIG. 11A).

[7] = tested on: mouse αT3 gonadotroph cells; assay: Cell cycle distribution (FACS, propidium iodide); type: cell-based
Protocol: as §2
as §3, with “GH3, αT3, or human pituitary tumor” for “AtT20”, “Cailf.).” for “Calif.).”, “μg/ mL” for “μg/mL”, “4°” for “40°”
as §4

[8] = tested on: gonadotroph tumor cells (LβT2); assay: Gonadotroph tumor growth in nude mice; type: in vivo, mouse; conditions: oral 150 mg/kg/day, 6 weeks
Description: FIG. 14A is a representative picture of a rosiglitazone-treated mouse (“Ros”) and an untreated (control) mouse 4 weeks following commencement of administration of treatment. The untreated (control) mouse in the picture developed numerous large visible tumors.
In separate parallel similarly conducted studies, gonadotroph tumor cells (LβT2) were innoculated in mice as above.

[9] = tested on: Mouse gonadotroph pituitary tumor cells (αT3); assay: Growth of established gonadotroph tumors in athymic nude mice; type: in vivo; conditions: oral 150 mg/kg/day for 6 weeks, started 3 weeks post-inoculation; vehicle 3.2±0.76, p=0.005
Description: As patients invariably present with already established and actively growing pituitary tumors, the effects of TZD treatment were therefore tested on growth of already established pituitary gonadotroph tumors in vivo. Mouse gonadotroph pituitary tumor cells (αT3) were inoculated subcutaneously in athymic nude mice, and tumors allowed to develop.

[10] = tested on: Somatolactotroph (GH3) tumor cells; assay: Somato-lactotroph tumor growth in athymic nude mice; type: in vivo, mouse; conditions: oral 150 mg/kg/day, 4 weeks
[11] = tested on: normal athymic Nu/Nu mice; conditions: 150 mg/kg for 6 weeks
Description: A person first presented 2 years ago with bruising, skin striae, 70 lb weight gain and hypertension. Evaluation confirmed the diagnosis of Cushing's syndrome due to an ACTH-secreting pituitary tumor, which was resected by transsphenoidal surgery. The patient presented again one year later with weight gain, labile hypertension, diabetes and confirmed recurrence of Cushing's syndrome.

[12] = tested on: AtT20 cells; assay: TUNEL apoptosis analysis; type: cell-based, mouse
Protocol: as §1, with “IN)” for “Ind.)”, “treatment with thiazolidinedione compounds (TZDs), AtT20” for “TZD treatment, GH3, αT3 and human pituitary tumor”, “4%” for “4% weight per volume”, “PBS/ Triton/ BSA” for “PBS/Triton/BSA”, “on” for “on a”

[13] = tested on: Mouse corticotroph pituitary tumor cells (AtT20); assay: Growth of established corticotroph tumors in athymic nude mice; type: in vivo; conditions: oral 150 mg/kg/day, 3 weeks
Description: The effects of TZD treatment were therefore tested on growth of already established pituitary corticotroph tumors, and steroid hormone levels in vivo. Mouse corticotroph pituitary tumor cells (AtT20) were innoculated subcutaneously in athymic nude mice, and tumors allowed to develop. […] Baseline serum ACTH and corticosterone levels, and tumor volumes were not different in the groups subsequently randomized as control or treated groups (data not shown, p=ns). […] All animals were euthanized at 6 weeks. The phenotypic appearance of the mice was strikingly different, and vehicle-treated mice were wasted, developed skin atrophy and appeared pigmented, with features of hypercorticolism (FIG. 8B).

[14] = tested on: patient with Cushing's syndrome; assay: 24 hour urinary free cortisol excretion in a patient with Cushing's syndrome; type: in vivo, human; conditions: 8 mg daily, one patient, vs. baseline, p<0.02
[15] = tested on: POMC promoter (-706/+64 rat POMC-luc) in AtT20 cells; assay: POMC promoter luciferase reporter transfection; type: cell-based, mouse; conditions: CRH 50 nM, luciferase over vehicle control
Description: Transfection with POMC promoter.

Compound: Cc1c(C)c2c(c(C)c1O)CCC(C)(COc1ccc(CC3SC(=O)NC3=O)cc1)O2 (racemic) [Troglitazone, (±)-5-[4[(6-Hydroxy-2,5,7,8-tetramethylchroman-2-yl)methoxy]-benzyl]-2,4-thiazolidinedione]
reason for market withdrawal ([1]; withdrawn in March, 2000): reports of liver toxicity in humans
expression of pro-apoptotic protein p53 [2]: increased expression

serum corticosterone, treated vs. untreated normal mice ([11]; unstressed and stressed (data not shown)): similar
Plasma ACTH, baseline (unstressed), Mean±SEM ([11]; controls 434±40, p=ns): 474 ± 33 pg/mL
Plasma ACTH, stress-induced (15 minutes restraint), Mean±SEM ([11]; controls 5278±312, p=ns): 4764 ± 292 pg/mL
Compound: CN(CCOc1ccc(CC2SC(=O)NC2=O)cc1)c1ccccn1 (racemic) [rosiglitazone, (±)-5-[[4-[2-(methyl-2-pyridinylamino)ethoxy]phenyl]methyl]-2,4-thiazolidinedione,(Z)-2-butenedioate]
% apoptosis ([3]; 10^−5 M): 69±7%
% apoptosis ([3]; 10^−6 M): 47±4%
S-phase cells ([4]; control 18±0.05%, p=0.001): 12±0.5%
cells in G1 (G0-G1 cell-cycle arrest) ([4]; control 75±4%, p=0.009): 85±2%
tumor diameter ([5]; control 1-2 cm): 0.1 cm
serum corticosterone, mean±SEM ([5]; vehicle 785±374, p<0.05): 113 ± 17 ng/mL
plasma ACTH, mean±SEM ([5]; vehicle 2085±847, p<0.05): 98 ± 33 pg/mL
cells in S-phase ([6]; control 18±0.05%, p=0.001): 12±0.5%
cells in G1 (G0-G1 cell-cycle arrest) ([6]; up to 48 h serum-free or up to 96 h serum-repleted, control 75±4%, p=0.009): 85±2%
cells in S-phase ([7]; control 31±0.5%, p=0.03): 16±2.5%
cells in G1 (G0-G1 cell-cycle arrest) ([7]; control 67±0.5%, p=0.01): 75±0.5%
tumor weight ([8]; control 3.44±0.42, P<0.002): 0.81 ± 0.19 g
plasma LH ([8]; control 69±19, p=0.004): 6.8 ± 1.0 ng/mL
tolerability in humans ([1]; About 20 milligrams per day, sustained periods of time): without adverse effects
clinical surveillance, safety ([1]; more than 4500 patients with type 2 diabetes): safe, effective
final tumor weight of established tumors [9]: 0.76 ± 0.29 g
tumor diameter [10]: 1-2 cm
tumor weight ([10]; control 0.13±0.01, p=0.008): 0.04 ± 0.01 g
serum GH ([10]; control 545±153, p=0.03): 114 ± 66 ng/mL
serum PRL ([10]; control 656±289, p=ns): 95 ± 58 ng/mL
% apoptosis (TUNEL) ([12]; 10^−5 M, control 33±3%, p<0.001): 69±7%
% apoptosis (TUNEL) ([12]; 10^−6 M, control 33±3%, p<0.001): 47±4%
increase in apoptosis (TUNEL) ([12]; 48 hours after treatment, vs. control): 2 fold
% apoptosis (TUNEL) ([12]; CRH 50 nM & ros 10^−5 M (pre-treatment before CRH), p<0.05 vs CRH): 19±3%
reduction in plasma ACTH ([13]; vs. controls): 75%
reduction in serum corticosterone levels ([13]; vs. controls): 96%
plasma ACTH, mean±SEM ([13]; controls 3841±308, p=0.002): 978 ± 452 pg/mL
serum corticosterone, mean±SEM ([13]; controls 4304±2593, p<0.05): 181 ± 56 ng/mL
decrease of 24 hour urinary free cortisol excretion (UFC) ([14]; after 2 weeks): 33%
decrease of 24 hour urinary free cortisol excretion (UFC) ([14]; after 3 weeks): 55%

Compound: CRH: Corticotrophin releasing hormone, a potent corticotroph proliferative factor
increase in POMC-transcription [15]: 1.6 fold
% apoptosis (TUNEL) ([12]; CRH 50 nM alone, 24 hours): 4±0.5%
